Assay results: US6280725A, “Compositions and methods for inhibiting the growth of fungi” (Lipton, division of Conopco, Inc., priority 2000, dated 2001)

Columns and labels:
Format in all cases: cell-based
[1] = system: Saccharomyces cerevisiae wild type strain SU-50; assay: Growth inhibition (growth curves) of wild type yeast SU-50; settings: for effect on growth of SU50: 25 mM sugar with 25 μM MB21, 100 cells per ml, vs reference and MB21 alone, effect if any, FIG. 5a
Procedure: (§1) For examples 2, and 4-9 grow-curves were recorded at 25° C. using a microbiology growth reader (Bioscreen C, ex Labsystems). For example 3, growth curve was determined as turbidity, measured by hand at a wave length of 660 nm (OD 660).
a) Saccharomyces cerevisiae strain SU-50 was cultivated in YEPD medium, supplemented with 2% glucose.
b) Growth curves were obtained with the strain SU-50. The cells (about 10 per ml) were cultured in YEPD at 25° C. in the presence or absence of β-gentiobiose or pustulan fragments and MB-21, by using a 24 well plate at room temperature with continuous shaking on a micro-titre plate shaker (mark 4) or a microbiology growth reader (Bioscreen C).
Three YEPD media were prepared, one without MB21, the other YEPD media contained 10 μM MB21 and 20 μM MB21, respectively. To these media β-gentiobiose was added in concentrations of 0, 50, 100 and 200 mM. The yeast strain SU50 was inoculated in these media in a concentration of 10 cells per ml, and cultivated in a 24 well plate at 25° C. Samples were taken from a 24 well plate at regular time intervals, diluted sixty times with distilled water and measured at 660 nm to construct the growth curves.
This example illustrates a relationship between the length of the β-(1,6)-glucan fragments and their effectiveness in competition.
(§2) In this example, three strains are grown in various media in the fashion of example 3, with the exception of being inoculated in the media in a concentration of 100 cells per ml. The sugars used are all comparatives: laminaribiose (β-1,3)-linked D-glucose), sucrose (having a 1,2 link), and sorbitol.
In this example, strain SU 50 was grown three media (see table 2) in the fashion of example 3, with the exception of being inoculated in the media in a concentration of 100 cells per ml.

[2] = system: Zygosaccharomyces bailii ZB (NCYC 563); assay: Growth curves of strain ZB; settings: 200 mM sugar with 6 μM MB21, 100 cells per ml, vs reference and MB21 alone; effect if any; FIG. 5b
Procedure: as §1
c) Zygosaccharomyces bailii ZB: as SU-50 above.
as §2
In this example, strain ZB was grown three media (see table 3) in the fashion of example 3, with the exception of being inoculated in the media in a concentration of 100 cells per ml.

[3] = system: Zygosaccharomyces bailii G1; assay: Growth curves / relative inhibition of strain G1; settings: 200 mM sugar with 6 μM MB21, 100 cells per ml, vs reference and MB21 alone; effect if any; FIG. 5c
Procedure: as §1
d) Zygosaccharomyces bailii G1: as SU-50 above.
as §2
In this example, strain G1 was grown three media (see table 4) in the fashion of example 3, with the exception of being inoculated in the media in a concentration of 100 cells per ml.
In this example, strain G1 was grown in the fashion of example 3 (with the exception of being inoculated in the media in a concentration of 100 cells per ml) in the presence of 6 μM MB21 and 50 mM of a β-(1,6)-glucan. Experiments were done with short-chain β-(1,6)-glucan of variable chain length.

[4] = system: Saccharomyces cerevisiae strain SU52-pUR5801; assay: Cell wall protein release test (α-galactosidase-CWP2p secretion into medium); settings: FIG. 1
Procedure: b) Saccharomyces cerevisiae strain SU52-pUR5801 was cultivated in Difco yeast nitrogen base (YNB), supplemented with 2% glucose and 0.004% histidine. After the culture had reached the late log-phase, the cells were cultivated further (a 10% inoculum) in YEPD medium, consisting of 1% Difco yeast extract, 2% Bacto-peptone, supplemented with 0.5% glucose and 5% galactose.
a) Saccharomyces cerevisiae strain SU52-pUR 5801 was grown in YNB and YEPD media, at 30° C. with shaking at 225 rpm in an orbital incubator until a OD (660 nm) between 5 and 6 was reached. In parallel experiments several concentrations of β-gentiobiose or pustulan fragments were included in the media. After cultivation, the media were separated from the cells by centrifugation (10.000×g for 15 min at 4° C.). The media were then filtered using […] filters. Secretion of α-(-galactosidase-CWP2p was assessed by measuring α-(-galactosidase enzyme activity in the media (see further on). […]
β-Gentiobiose was dissolved in YEPD media supplemented with 5% galactose, in concentrations of 10, 50 and 100 mM respectively. […] The enzyme activity of the fusion protein CWP2-α-galactosidase was measured as described in the α-galactosidase assay.

SMILES	effect on growth of SU50 [1]	effect on growth of ZB [2]	effect on growth of G1 [3]	relationship between concentration and secretion of the fusion construct ([4]; at least up to 100 mM β-gentiobiose)	secretion (release) of the fusion protein α-galactosidase-CW2p from the cell wall ([4]; β-gentiobiose 10, 50 and 100 mM in YEPD with 5% galactose, 30° C., 18 hours)	influence on the growth of SU-50 ([1]; β-gentiobiose as such (0, 50, 100, 200 mM, no MB21), 10 cells per ml, 25° C., OD 660, FIG. 3)
OC[C@H]1O[C@@H](O[C@H]2[C@H](O)[C@@H](CO)OC(O)[C@@H]2O)[C@H](O)[C@@H](O)[C@@H]1O (stereo partly shown) [laminaribiose]	stimulating effect	–	–	–	–	–
OC[C@H]1O[C@@](CO)(O[C@H]2O[C@H](CO)[C@@H](O)[C@H](O)[C@H]2O)[C@@H](O)[C@@H]1O [sucrose]	stimulating effect	stimulating effect	stimulating effect	–	–	–
OC[C@@H](O)[C@@H](O)[C@H](O)[C@@H](O)CO [sorbitol]	stimulating effect	stimulating effect	stimulating effect	–	–	–
OC[C@H]1O[C@@H](OC[C@H]2O[C@@H](O)[C@H](O)[C@@H](O)[C@@H]2O)[C@H](O)[C@@H](O)[C@@H]1O [β-gentiobiose, 6-O-β-glucopyranosyl-β-D-glucose]	–	–	–	linear relationship	concentration dependent	no influence
